This is an account of results in patent US20230203060A1 (GENFLEET THERAPEUTICS (SHANGHAI) INC., priority 2020, published 2023).

The target of experiment [1] is T1, KRAS G12C (Homo sapiens, UniProt P01116, G12C).
T1 construct: purchased Reactionbiology
Put plainly: KRAS G12C NEA-HTRF experiment (SOS1-catalyzed displacement of GDP by GTP). In kind it is biochemical. In short, it runs like this:
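His-tagged KRAS G12C preloaded with DY647-GDP was preincubated 15 min at 20 °C with compound, then exchanged with SOS1 (0.2 μM working solution) and GTP (200 μM working solution) for 2 h at 20 °C in the dark. HTRF 665/615 nm ratio with anti-His-Tb was normalised to T0 and no-compound controls; IC50 by four-parameter fit.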

Experiment [2] has as its system phosphorylated ERK downstream of KRAS G12C in MIA PaCa2 cells. Put plainly: Cell p-ERK detection experiment (HTRF) in MIA PaCa2. The settings on record: Homo sapiens, MIA PaCa-2, 2 h, MIA PaCa2 cells, 2 hours with compound, Advance ERK phospho-T202/Y204 HTRF kit; read-out: p-ERK IC50. Format: cell-based, human. In short, it runs like this: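 Phospho-ERK (T202/Y204) measured by HTRF after 30 min lysis and 4 h antibody incubation in MIA PaCa2 (KRAS G12C) cells, seeded at 2.5E4 per well and treated 2 h with compounds in 3.16-fold steps, final DMSO 0.1%. IC50 from a four-parameter fit of percent inhibition relative to DMSO and blank wells.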

T1 sequence (P01116 1-188 isoform P01116-2 G12C): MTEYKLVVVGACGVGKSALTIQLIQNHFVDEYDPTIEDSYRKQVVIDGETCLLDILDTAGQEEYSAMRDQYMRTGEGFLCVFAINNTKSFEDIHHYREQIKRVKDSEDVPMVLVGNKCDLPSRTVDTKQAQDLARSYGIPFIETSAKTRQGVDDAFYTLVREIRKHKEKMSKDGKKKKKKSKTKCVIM

With `C=CC(=O)N1CCN2C(=O)c3c(N4C[C@H](OC)C[C@@H]4C)nc(-c4c(O)cccc4F)c(Cl)c3OC[C@H]2C1` [Z259a, (6aR)-8-acryloyl-4-chloro-3-(2-fluoro-6-hydroxyphenyl)-1-((2S,4R)-4-methoxy-2-methylpyrrolidin-1-yl)-6,6a,7,8,9,10-hexahydro-12H-pyrazino[2,1-c]pyrido[3,4-f][1,4]oxazepin-12-one], the figures for the IC50 in experiment [1] and in experiment [2] were 26 nM and 27 nM, respectively.

As for `C=CC(=O)N1CCN2C(=O)c3c(N4C[C@@H](OC)C[C@@H]4C)nc(-c4c(O)cccc4F)c(Cl)c3OC[C@H]2C1` [Z260a, (6aR)-8-acryloyl-4-chloro-3-(2-fluoro-6-hydroxyphenyl)-1-((2S,4S)-4-methoxy-2-methylpyrrolidin-1-yl)-6,6a,7,8,9,10-hexahydro-12H-pyrazino[2,1-c]pyrido[3,4-f][1,4]oxazepin-12-one], the IC50 is 27 nM in experiment [1] and 22 nM in experiment [2].

Turning to `C=CC(=O)N1CCN2C(=O)c3c(N4CC(C#N)CC4(C)C)nc(-c4c(O)cccc4F)c(Cl)c3OC[C@H]2C1` (stereo partly drawn) [Z275, (6aR)-8-acryloyl-1-(4-cyano-2,2-dimethylpyrrolidin-1-yl)-4-chloro-3-(2-fluoro-6-hydroxyphenyl)-6,6a,7,8,9,10-hexahydro-12H-pyrazino[2,1-c]pyrido[3,4-f][1,4]oxazepin-12-one], the 50% inhibitory concentration (IC50) in experiment [1] stood at 21 nM; in experiment [2] it was 16 nM.

In the case of `C=CC(=O)N1CCN2C(=O)c3c(N4CC(C)(C)OC[C@@H]4C)nc(-c4c(O)cccc4F)c(Cl)c3OC[C@H]2C1` [Z276-1, (6aR)-8-acryloyl-4-chloro-3-(2-fluoro-6-hydroxyphenyl)-1-((S)-2,2,5-trimethylmorpholino)-6,6a,7,8,9,10-hexahydro-12H-pyrazino[2,1-c]pyrido[3,4-f][1,4]oxazepin-12-one], the figures for the IC50 in experiment [1] and in experiment [2] were 113 nM and 83 nM, respectively.

For `C=CC(=O)N1CCN2C(=O)c3c(N4CCC[C@@]4(C)CO)nc(-c4c(O)cccc4F)c(Cl)c3OC[C@H]2C1` [Z279-2], the concentration for half-maximal inhibition (IC50) in experiment [1] is 29 nM; in experiment [2] it was 35 nM.

On to `C=CC(=O)N1CCN2C(=O)c3c(N4Cc5cn(C)nc5C4C)nc(-c4c(O)cccc4F)c(Cl)c3OC[C@H]2C1` (some centres unmarked) [Z291-2], for which the results for the IC50 in experiment [1] and in experiment [2] were 18 nM and 24 nM, respectively.

For `C=CC(=O)N1CCN2C(=O)c3c(N4Cc5cn(C)nc5C4(C)C)nc(-c4c(O)cccc4F)c(Cl)c3OC[C@H]2C1` [Z310, (6aR)-8-acryloyl-1-(2,6,6-trimethylpyrrolo[3,4-c]pyrazol-5(2H,4H,6H)-yl)-4-chloro-3-(2-fluoro-6-hydroxyphenyl)-6,6a,7,8,9,10-hexahydro-12H-pyrazino[2,1-c]pyrido[3,4-f][1,4]oxazepin-12-one], the values for the IC50 in experiment [1] and in experiment [2] were 36 nM and 104 nM, respectively.

For `C=CC(=O)N1CCN2C(=O)c3c(N4CCN(C)C(=O)[C@@H]4C)nc(-c4c(O)cccc4F)c(Cl)c3OC[C@H]2C1` [Z311-1, (6aR)-8-actyloyl-4-chloro-1-((S)-2,4-dimethyl-3-oxopiperazin-1-yl)-3-(2-fluoro-6-hydroxyphenyl)-6,6a,7,8,9,10-hexahydro-12H-pyrazino[2,1-c]pyrido[3,4-f][1,4]oxazepin-12-one], the IC50 in experiment [1] was determined as 34 nM; in experiment [2] it was 70 nM.

Consider `C=CC(=O)N1CCN2C(=O)c3c(N4CCN(C5CC5)C[C@@H]4C)nc(-c4c(O)cccc4F)c(Cl)c3OC[C@H]2C1` [Z312-1, (6aR)-8-acryloyl-4-chloro-1-((S)-4-cyclopropyl-2-methylpiperazin-1-yl)-3-(2-fluoro-6-hydroxyphenyl)-6,6a,7,8,9,10-hexahydro-12H-pyrazino[2,1-c]pyrido[3,4-f][1,4]oxazepin-12-one], for which the figures for the IC50 in experiment [1] and in experiment [2] were 134 nM and 194 nM, respectively.

Regarding `C=CC(=O)N1CCN2C(=O)c3c(N4CCN(C(C)=O)C[C@@H]4C)nc(-c4c(O)cccc4F)c(Cl)c3OC[C@H]2C1` [Z313-1], the IC50 in experiment [1] worked out at 13 nM; in experiment [2] it was 23 nM.

As for `C=CC(=O)N1CCN2C(=O)c3c(N4CCOCC4)nc(-c4nc(N)cc(C)c4C(F)(F)F)c(Cl)c3OC[C@H]2C1` [Z314], the figures for the IC50 in experiment [1] and in experiment [2] were 43 nM and 62 nM, respectively.

For `C=CC(=O)N1CCN2C(=O)c3c(N4CCN(C(C)=O)C(C)(C)C4)nc(-c4c(O)cccc4F)c(Cl)c3OC[C@H]2C1` [Z315, (6aR)-1-(4-acetyl-3,3-dimethylpiperazin-1-yl)-8-acryloyl-4-chloro-3-(2-fluoro-6-hydroxyphenyl)-6,6a,7,8,9,10-hexahydro-12H-pyrazino[2,1-c]pyrido[3,4-f][1,4]oxazepin-12-one], the IC50 in experiment [1] worked out at 33 nM; in experiment [2], 62 nM.

Consider `C=CC(=O)N1CCN2C(=O)c3c(N4CCN(C(=O)CC)C[C@@H]4C)nc(-c4c(O)cccc4F)c(Cl)c3OC[C@H]2C1` [Z316-1, (6aR)-8-acryloyl-4-chloro-3-(2-fluoro-6-hydroxyphenyl)-1-((S)-2-methyl-4-propionylpiperazin-1-yl)-6,6a,7,8,9,10-hexahydro-12H-pyrazino[2,1-c]pyrido[3,4-f][1,4]oxazepin-12-one], for which the IC50 came to 9 nM in experiment [1] and 20 nM in experiment [2].

In the case of `C=CC(=O)N1CCN2C(=O)c3c(N4CCN(S(C)(=O)=O)C[C@@H]4C)nc(-c4c(O)cccc4F)c(Cl)c3OC[C@H]2C1` [Z318-1, (6aR)-8-acryloyl-1-((S)-2-methyl-4-(methylsulfonyl)piperazin-1-yl)-4-chloro-3-(2-fluoro-6-hydroxyphenyl)-6,6a,7,8,9,10-hexahydro-12H-pyrazino[2,1-c]pyrido[3,4-f][1,4]oxazepin-12-one], the IC50 in experiment [1] amounted to 37 nM; in experiment [2] it was 87 nM.

Turning to `C=CC(=O)N1CCN2C(=O)c3c(N4CC(=O)N(CC)C[C@@H]4C)nc(-c4c(O)cccc4F)c(Cl)c3OC[C@H]2C1` [Z319-1, (6aR)-8-acryloyl-4-chloro-1-((S)-4-ethyl-2-methyl-5-oxopiperazin-1-yl)-3-(2-fluoro-6-hydroxyphenyl)-6,6a,7,8,9,10-hexahydro-12H-pyrazino[2,1-c]pyrido[3,4-f][1,4]oxazepin-12-one], the IC50 in experiment [1] was found to be 9 nM; in experiment [2], 16 nM.

For `C=CC(=O)N1CCN2C(=O)c3c(N4CCN(C(=O)C5CC5)C[C@@H]4C)nc(-c4c(O)cccc4F)c(Cl)c3OC[C@H]2C1` [Z320-1, (6aR)-8-acryloyl-4-chloro-1-((S)-4-(cyclopropanecarbonyl)-2-methylpiperazin-1-yl)-3-(2-fluoro-6-hydroxyphenyl)-6,6a,7,8,9,10-hexahydro-12H-pyrazino[2,1-c]pyrido[3,4-f][1,4]oxazepin-12-one], the IC50 in experiment [1] turned out to be 9 nM; in experiment [2], 17 nM.

`C=CC(=O)N1CCN2C(=O)c3c(N4CCN(CCOC)C(C)(C)C4)nc(-c4c(O)cccc4F)c(Cl)c3OC[C@H]2C1` [Z321, (6aR)-8-acryloyl-4-chloro-3-(2-fluoro-6-hydroxyphenyl)-1-(4-(2-methoxyethyl)-3,3-dimethylpiperazin-1-yl)-6,6a,7,8,9,10-hexahydro-12H-pyrazino[2,1-c]pyrido[3,4-f][1,4]oxazepin-12-one]: the IC50 in experiment [1] was 78 nM; in experiment [2] it was 50 nM.

For the compound `C=CC(=O)N1CCN2C(=O)c3c(N4CCN(CC)C(C)(C)C4)nc(-c4c(O)cccc4F)c(Cl)c3OC[C@H]2C1` [Z322, (6aR)-8-actyloyl-4-chloro-3-(2-fluoro-6-hydroxyphenyl)-1-(4-ethyl-3,3-dimethylpiperazin-1-yl)-6,6a,7,8,9,10-hexahydro-12H-pyrazino[2,1-c]pyrido[3,4-f][1,4]oxazepin-12-one], the IC50 turned out to be 62 nM in experiment [1] and 36 nM in experiment [2].

Take `C=CC(=O)N1CCN2C(=O)c3c(N4CC(N(C)C5COC5)CC4(C)C)nc(-c4c(O)cccc4F)c(Cl)c3OC[C@H]2C1` (stereo partly drawn) [Z326, (6aR)-8-acryloyl-4-chloro-1-(2,2-dimethyl-4-(methyl(oxetan-3-yl)amino)pyrrolidin-1-yl)-3-(2-fluoro-6-hydroxyphenyl)-6,6a,7,8,9,10-hexahydro-12H-pyrazino[2,1-c]pyrido[3,4-f][1,4]oxazepin-12-one]: the figures for the IC50 in experiment [1] and in experiment [2] were 8 nM and 6 nM, respectively.

As for `C=CC(=O)N1CCN2C(=O)c3c(N4CCN(C)C[C@@H]4C)nc(-c4nc(N)cc(C)c4C(F)(F)F)c(Cl)c3OC[C@H]2C1` [Z328-1, (R)-8-acryloyl-3-(6-amino-4-methyl-3-(trifluoromethyl)pyridin-2-yl)-4-chloro-1-((S)-2,4-dimethylpiperazin-1-yl)-6,6a,7,8,9,10-hexahydro-12H-pyrazino[2,1-c]pyrido[3,4-f][1,4]oxazepin-12-one], the IC50 in experiment [1] and in experiment [2] was 15 nM in each case.

Consider `C=CC(=O)N1CCN2C(=O)c3c(N4CCC(N(C)C)C4(C)C)nc(-c4c(O)cccc4F)c(Cl)c3OC[C@H]2C1` (stereo partly drawn) [Z334, (6aR)-8-acryloyl-4-chloro-1-(3-(dimethylamino)-2,2-dimethylpyrrolidin-1-yl)-3-(2-fluoro-6-hydroxyphenyl)-6,6a,7,8,9,10-hexahydro-12H-pyrazino[2,1-c]pyrido[3,4-f][1,4]oxazepin-12-one], for which the IC50 in experiment [1] stood at 79 nM; in experiment [2], 62 nM.

Regarding `C=CC(=O)N1CCN2C(=O)c3c(N4CC(C#N)CC4(C)C)nc(-c4c(O)cccc4F)c(F)c3OC[C@H]2C1` (some centres unmarked) [Z335], the IC50 in experiment [1] was 78 nM; in experiment [2], 130 nM.
